From ChEMBL document CHEMBL1201862, “PubChem BioAssay data set” (2004) come the findings set out here.

Among the test systems are MDA-MB-435; HOP-62; HCT-15; BT-549; PC-3; SF-295; HCC 2998; CAKI-1; KM12; A498; SK-MEL-5; ACHN; NCI/ADR-RES; UACC-62; EKVX; SW-620; TK-10; MDA-MB-231; M14.
Holding throughout (assay): NCI-60 cell line screen, 48 h

SMILES strings stand for the structures.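 Test compounds were applied to cells in 96-well plates for 48 hours at 5 doses. GI50: concentration for 50% inhibition of growth.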 Activity calls are given as the source filed them. No stated cut-off is given here; in the data, active = GI50 up to about 1.1 µM and inactive = higher.

For the compound `C[C@@H]1CC[C@H]2C(C)(C)[C@H]3C[C@@]12CC[C@@]3(C)O` [CEDROL], the GI50 is 92.5 µM (inactive) in the test with MDA-MB-435; > 100 µM (inactive) in the test on HOP-62; 59.3 µM in the test with HCT-15; > 100 µM (inactive) in the test on BT-549; > 100 µM (inactive) in the test on PC-3; > 100 µM (inactive) with SF-295. The GI50 in the test on HCC 2998 is 52.2 µM (inactive); with CAKI-1 it was > 100 µM (inactive); in the test on KM12, 48.1 µM (inactive); in the test with A498, > 100 µM (inactive); with SK-MEL-5, 42.7 µM (inactive); with ACHN it was > 100 µM (inactive). Moreover, the GI50 with NCI/ADR-RES, in the test on UACC-62, in the test on EKVX, in the test with SW-620, in the test with TK-10 and with MDA-MB-231 was > 100 µM (inactive) each time. In addition, in the test with M14, the GI50 was > 100 µM (inactive).
With `O=C1C(Cl)=C(Nc2ccc(OC(F)(F)F)cc2)C(=O)c2c(O)ccc(O)c21`, the GI50 with MDA-MB-435 was 0.873 µM (active); in the test on HOP-62, 1.17 µM (inactive); in the test on HCT-15, 0.366 µM; in the test on BT-549 it was 0.855 µM (active); in the test on PC-3, 0.679 µM (active); with SF-295, 1.93 µM (inactive). Besides, the GI50 was 0.544 µM (active) in the test with HCC 2998; 1.6 µM (inactive) in the test with CAKI-1; 1.5 µM (inactive) in the test with KM12; 3.87 µM (inactive) in the test on A498; 2.11 µM (inactive) with SK-MEL-5; 1.45 µM (inactive) in the test on ACHN. In addition, the GI50 with NCI/ADR-RES was 1.74 µM (inactive); with UACC-62, 0.975 µM (active); in the test with EKVX it was 0.877 µM (active); in the test on SW-620 it was 0.891 µM (active); in the test on TK-10, 1.48 µM (inactive); with MDA-MB-231 it was 0.443 µM (active). Further, the GI50 in the test on M14 was 0.423 µM (active).
On to `O=[N+]([O-])c1cc(Cl)ccc1Sc1ccccc1`, for which the GI50 with MDA-MB-435 was > 100 µM (inactive); in the test with HOP-62, > 100 µM (inactive); with HCT-15, 72.3 µM; with BT-549, 81.5 µM (inactive); with PC-3, > 100 µM (inactive); with SF-295 it was > 100 µM (inactive). Besides, the GI50 is 87.9 µM (inactive) in the test with HCC 2998; 93.8 µM (inactive) in the test on CAKI-1; 98.6 µM (inactive) in the test with KM12; > 100 µM (inactive) with A498; 75.2 µM (inactive) in the test with SK-MEL-5; > 100 µM (inactive) in the test with ACHN. The GI50 in the test on NCI/ADR-RES, with UACC-62, in the test with EKVX, in the test with SW-620, in the test with TK-10 and in the test on MDA-MB-231 was > 100 µM (inactive) throughout. Besides, the GI50 with M14 is > 100 µM (inactive).
For the compound `O=C1CCCC1C(=O)Nc1ccc2ccccc2c1` (centres undefined), the GI50 in the test with MDA-MB-435 was > 100 µM (inactive); in the test with HOP-62 it was > 100 µM (inactive); in the test on HCT-15 it was above 100 µM; in the test on BT-549 it was > 100 µM (inactive); with PC-3, > 100 µM (inactive); in the test on SF-295 it was > 100 µM (inactive). In addition, the GI50 in the test with HCC 2998 was > 100 µM (inactive); with CAKI-1, > 100 µM (inactive); in the test on KM12, 84.9 µM (inactive); in the test with A498, > 100 µM (inactive); in the test with SK-MEL-5 it was > 100 µM (inactive); with ACHN, > 100 µM (inactive). Besides, the GI50 with NCI/ADR-RES was > 100 µM (inactive); in the test with UACC-62, > 100 µM (inactive); in the test with EKVX, 32.1 µM (inactive); with SW-620 it was > 100 µM (inactive); with TK-10 it was > 100 µM (inactive); in the test with MDA-MB-231 it was > 100 µM (inactive). The GI50 in the test with M14 was > 100 µM (inactive).
For the compound `O=C1Nc2ccccc2/C1=C\c1c(Cl)nc2n1CCS2`, the GI50 with MDA-MB-435 was 12.6 µM (inactive); in the test with HOP-62, 29 µM (inactive); in the test on HCT-15 it was 22.5 µM; with BT-549, 19.5 µM (inactive); with PC-3, 24.5 µM (inactive); in the test with SF-295, 25.2 µM (inactive). Further, the GI50 in the test on HCC 2998 was 17.9 µM (inactive); with CAKI-1, 34.8 µM (inactive); with KM12 it was 17.9 µM (inactive); with A498, 18.8 µM (inactive); in the test with SK-MEL-5, 14.6 µM (inactive); in the test on ACHN it was 38.3 µM (inactive). Also, the GI50 in the test with NCI/ADR-RES was 23.6 µM (inactive); in the test with UACC-62 it was 13.5 µM (inactive); in the test with EKVX it was 22.9 µM (inactive); with SW-620, 31.3 µM (inactive); in the test on TK-10, 19.7 µM (inactive); in the test on MDA-MB-231, 19 µM (inactive). Further, in the test on M14, the GI50 is 33.7 µM (inactive).
For the compound `N#CSC#CCCC#CSC#N`, the GI50 was 23 µM (inactive) in the test with MDA-MB-435; 19.3 µM (inactive) in the test with HOP-62; 18.2 µM in the test with HCT-15; 21.7 µM (inactive) in the test with BT-549; 20.9 µM (inactive) in the test on PC-3; 18.3 µM (inactive) in the test on SF-295. The GI50 in the test with HCC 2998 was 17.5 µM (inactive); in the test with CAKI-1, 19 µM (inactive); in the test with KM12, 17.7 µM (inactive); with A498 it was 20 µM (inactive); with SK-MEL-5, 18.2 µM (inactive); with ACHN, 17.5 µM (inactive). Also, the GI50 was 28.2 µM (inactive) with NCI/ADR-RES; 17 µM (inactive) in the test with UACC-62; 17.7 µM (inactive) in the test with EKVX; 14.2 µM (inactive) in the test with SW-620; 17.9 µM (inactive) with TK-10; 17.7 µM (inactive) in the test with MDA-MB-231. Also, the GI50 in the test with M14 is 12.9 µM (inactive).
`N/C(S)=N/N=C/c1ccc(N)cn1`: the GI50 with MDA-MB-435 was 5.9 µM (inactive); in the test with HOP-62, 5.73 µM (inactive); with HCT-15 it was 5.87 µM; with BT-549, 3.48 µM (inactive); with PC-3 it was 6.15 µM (inactive); with SF-295 it was 3.52 µM (inactive). Also, the GI50 in the test on HCC 2998 was 3.65 µM (inactive); in the test on CAKI-1, 3.78 µM (inactive); with KM12, 6.22 µM (inactive); in the test on A498 it was > 8.15 µM (inactive); in the test with SK-MEL-5, 2.25 µM (inactive); in the test with ACHN, 1.29 µM (inactive). Also, the GI50 in the test with NCI/ADR-RES was 3.08 µM (inactive); in the test with UACC-62, 3.19 µM (inactive); in the test on EKVX, > 10 µM (inactive); in the test on SW-620 it was > 10 µM (inactive); with TK-10 it was > 10 µM (inactive); in the test on MDA-MB-231, > 6.79 µM (inactive). Also, the GI50 in the test on M14 was 2.21 µM (inactive).
For the compound `CC1(C)OC([C@H](O)CO)C([C@H]2NCCS2)O1` (some centres undefined), the GI50 in the test with MDA-MB-435 was > 100 µM (inactive); in the test on HOP-62, > 100 µM (inactive); with HCT-15, above 100 µM; in the test on BT-549 it was > 100 µM (inactive); in the test on PC-3 it was > 100 µM (inactive); with SF-295 it was > 100 µM (inactive). Also, the GI50 with HCC 2998, in the test on CAKI-1, in the test on KM12, in the test with A498, in the test on SK-MEL-5 and in the test with ACHN was > 100 µM (inactive) each time. Moreover, the GI50 in the test on NCI/ADR-RES, in the test on UACC-62, with EKVX, with SW-620, in the test with TK-10 and in the test on MDA-MB-231 was > 100 µM (inactive) in each case. In addition, the GI50 with M14 was > 100 µM (inactive).
For `O=[N+]([O-])C(=C(Cl)Cl)C(Cl)=C(Cl)Cl`, the GI50 in the test on MDA-MB-435 is 0.314 µM (active); with HOP-62, 8.22 µM (inactive); in the test with HCT-15 it was 0.156 µM; in the test with BT-549, 0.124 µM (active); with PC-3, 0.778 µM (active); in the test with SF-295 it was 3.06 µM (inactive). The GI50 in the test on HCC 2998 is 1.3 µM (inactive); in the test with CAKI-1 it was 0.15 µM (active); in the test with KM12 it was 1.85 µM (inactive); in the test with A498, 3.63 µM (inactive); in the test on SK-MEL-5, 0.52 µM (active); in the test with ACHN, 0.635 µM (active). The GI50 in the test with NCI/ADR-RES was 1.36 µM (inactive); in the test on UACC-62 it was 0.433 µM (active); with EKVX it was 3.65 µM (inactive); in the test on SW-620, 0.0169 µM (active); in the test with TK-10, 0.372 µM (active); in the test on MDA-MB-231 it was 0.505 µM (active). In the test with M14, the GI50 was 0.0202 µM (active).
In the case of `Cc1ccc2[nH]c3c(c2c1)C1CCC(C(C)(C)C)CC1C1C(=O)N(c2ccc4c(c2)OCO4)C(=O)C31` (centres undefined), the GI50 with MDA-MB-435 was 7.21 µM (inactive); in the test on HOP-62, 1.91 µM (inactive); in the test on HCT-15, 5.21 µM; in the test on BT-549 it was 7.87 µM (inactive); with PC-3 it was 3.07 µM (inactive); with SF-295, 3.11 µM (inactive). Besides, the GI50 in the test with HCC 2998 was 2.38 µM (inactive); with CAKI-1, 2.3 µM (inactive); in the test on KM12, 5.25 µM (inactive); in the test on A498 it was 1.83 µM (inactive); in the test with SK-MEL-5, 8.15 µM (inactive); with ACHN it was 1.87 µM (inactive). For the same compound, the GI50 in the test on NCI/ADR-RES is 3.1 µM (inactive); with UACC-62, 10.8 µM (inactive); in the test with EKVX, 3.57 µM (inactive); with SW-620 it was 2.63 µM (inactive); with TK-10 it was 2.05 µM (inactive); in the test with MDA-MB-231, 2.29 µM (inactive). In the test on M14, the GI50 is 4.7 µM (inactive).
For the compound `O=C(/C=C/c1ccco1)c1cccc(C(=O)/C=C/c2ccco2)n1`, the GI50 in the test with MDA-MB-435 was 48.5 µM (inactive); in the test on HOP-62, 17.1 µM (inactive); with HCT-15, 4.92 µM; with BT-549 it was 13 µM (inactive); in the test on PC-3, 13.2 µM (inactive); with SF-295 it was 40.1 µM (inactive). Further, the GI50 in the test on HCC 2998 is > 75.9 µM (inactive); with CAKI-1, 25 µM (inactive); with KM12 it was 3.98 µM (inactive); in the test with A498 it was > 72.1 µM (inactive); in the test with SK-MEL-5 it was 48.6 µM (inactive); with ACHN, 21.9 µM (inactive). The GI50 in the test on NCI/ADR-RES is 24.2 µM (inactive); with UACC-62, 27.8 µM (inactive); in the test with EKVX, 57.3 µM (inactive); with SW-620, 3.2 µM (inactive); in the test on TK-10, 41.2 µM (inactive); in the test on MDA-MB-231, 40.1 µM (inactive). In addition, the GI50 with M14 was 27.2 µM (inactive).
